We go through 5 molecules from patent publication US11512079B2, “Heterocycle substituted pyridine derivative antifungal agents” (Amplyx Pharmaceuticals, Inc., priority 2017, dated 2022).

A word on the MIC: it is the lowest concentration found to suppress growth. By MIC90 is commonly meant the lowest concentration that inhibits either 90% of growth or 90% of the strains tested, depending on the study.

In brackets after ≈: the same amount, converted by molar mass.

Experiment [1] relates to C. neoformans H99. Put plainly: Antifungal susceptibility testing, CLSI broth microdilution (Example 496/497). Type of experiment: cell-based, Cryptococcus neoformans. An excerpt:
(§1) Isolates tested. C. neoformans strains H99, DUMC 118.00, DUMC 158.03 and C. gattii strains R272, and RSA-MW-3515 were obtained from Duke University. C. albicans 90028, A. fumigatus MYA3626, C. neoformans 14116, C. neoformans 76484 and the pathogenic Cryptococcus reference strains panel (ATCC MP-11) were obtained from American Type Culture Collection (ATCC, Manassas, Va., USA). The MP-11 panel consists of strains representing eight molecular types and three subtypes of C. neoformans and C. gattii.
(§2) Antifungal susceptibility testing. To establish antimicrobial activity, broth microdilution susceptibility testing was performed according to Clinical and Laboratory Standards Institute (CLSI) guidelines M27-A3 for yeasts and M38-A2 for molds. Compound 2 and analogs were first diluted in DMSO to obtain intermediate dilutions. These were further diluted in microtiter plates to obtain a final concentration of 2 to 0.002 μg/mL. 1 μl of DMSO was added to “No drug” control wells. The solutions were mixed on a plate shaker for 10 mins and plates incubated at 35° C. for 40 to 48 h (C. albicans, A. fumigatus) and 72 h (C. neoformans). The minimum concentration that led to 50% reduction in fungal growth as compared to the control (with the aid of a reading mirror) was determined as the minimum inhibitory concentration (MIC) for C. albicans and C. neoformans. The minimum concentration that led to shortening of hyphae as compared to hyphal growth in DMSO control wells was determined as the minimum effective concentration (MEC) for A. fumigatus (as read for echinocandins). The use of the MIC and MEC endpoints for Compound 2 against yeasts and molds, respectively has been described previously.
Background: Dilution methods test growth across graded concentrations, often in twofold steps.

The test system of experiment [2] is C. neoformans H99. Put plainly: Synergy with FLC, standard microtiter checkerboard dilution. Format: cell-based, Cryptococcus neoformans. Particulars: synergy = FICI <0.5, MIC read at 50% inhibition. The procedure: Gwt1 inhibitors are synergistic with FLC. […] Importantly, no antagonism was observed.
as §2

Experiment [3] deals with C. neoformans strain H99. Put plainly: Delayed treatment model of cryptococcal meningitis, CD-1 mice. Format: in vivo, Cryptococcus neoformans. To be noted: treatment from 24 h after infection, 7 days; prodrug 60 mg/kg IP QD with 100 mg/kg ABT PO; AMB 3 mg/kg IP; n=5. The procedure: Infection was initiated on Day 1 and treatment was initiated 24 h later (Day 2) rather than 1 h. Treatments were administered for 7 days (final dose on Day 8) and mice were sacrificed on Day 9 for CFU enumeration.
Delayed treatment model. […] Fungal burden data were log10 transformed and evaluated using Kruskal-Wallis tests with Dunn's Multiple Comparison Test for Post-hoc analysis (Prism 5; GraphPad Software, Inc., San Diego, Calif.). A P value of ≤0.05 is considered statistically significant

Experiment [4] has as its system C. neoformans strain H99. As to the kind of experiment: Murine model of cryptococcal meningitis, dosing in the presence of the pan-CYP inhibitor ABT, CD-1 mice. Type of experiment: in vivo, Cryptococcus neoformans. To be noted: for reduction of CFU in brain vs untreated control / reduction of CFU in lung vs untreated control: preliminary experiment, 100 mg/kg ABT PO 2 h prior to each dose, n=5. How it is done:
Efficacy of exemplary compounds in a murine model of cryptococcal meningitis when dosed in the presence of the pan-CYP inhibitor ABT. […] 100 mg/kg ABT was administered orally to male CD-1 mice 2 h prior to compound administration. Mice were injected with 6.9×10^4 CFU C. neoformans strain H99 per mouse via lateral tail vein at T=0 h. Treatment with each prodrug was initiated about 1 h post-infection by IP administration and continued daily for 7 days with 100 mg/kg ABT administered orally 2 h prior to each dose of compound. The mean log10 CFU/g brain and lung counts in untreated control mice were 7.83±0.09 and 4.67±0.88, respectively (FIG. 1).
[…] A 60 mg/kg dose QD without ABT was also evaluated as a control.
Cryptococcal meningitis model. C. neoformans strain H99 was grown in YPD broth at 30° C. on a shaker (220 rpm) for 24 h, centrifuged (1980 ref) and washed twice in PBS, resuspended in PBS, and quantified by hemacytometric count. CD-1 male mice were infected with ˜5×10^4 CFU per mouse via lateral tail vein injection of 100 μL. Mice were weighed, and treatment was within 1 h after infection. Treatments were administered daily for seven days. Mice were weighed daily and observed for acute and chronic adverse symptoms. Mice were sacrificed on day 8, and brain and left lung were homogenized and cultured for quantitative determination of tissue burden (CFU per gram of tissue). Tissues were homogenized for 25 seconds in […] phosphate buffered saline using two 6.5 mm steel beads and a Mini-Beadbeater 16 (Biospec Products, Inc., Bartlesville, Okla.), and serially diluted in 10-fold steps. Aliquots ([…]) of homogenate were plated and incubated for 3 to 7 days at 37° C. Fungal burden data were log10 transformed and evaluated using Kruskal-Wallis tests with Dunn's Multiple Comparison Test for Post-hoc analysis (Prism 5; GraphPad Software, Inc., San Diego, Calif.). A P value of ≤0.05 is considered statistically significant.

Experiment [5] relates to C. neoformans US isolates. Particulars: cited from earlier work.
In experiment [6] the test system is A. fumigatus MYA3626. As to the kind of experiment: Antifungal susceptibility testing, CLSI broth microdilution (Example 496/497). Format: cell-based, Aspergillus fumigatus.
From the text: as §1, §2

The test system of experiment [7] is C. albicans 90028. The description is as above. Type of experiment: cell-based, Candida albicans.
From the text: as §1, §2

Experiment [8] has as its system C. gattii isolates. As to the kind of experiment: Activity vs susceptible and FLC non-susceptible/resistant strains, broth microdilution. Format: cell-based, Cryptococcus gattii.
From the text: (§3) The activity of Gwt1 inhibitors against susceptible and FLC non-susceptible/resistant strains.
as §1
(§4) Antifungal susceptibility testing. To establish antimicrobial activity, broth microdilution susceptibility testing was performed according to Clinical and Laboratory Standards Institute (CLSI) guidelines M27-A3 for yeasts and M38-A2 for molds. Compound 2 and analogs were first diluted in DMSO to obtain intermediate dilutions. These were further diluted in microtiter plates to obtain a final concentration of 2 to 0.002 μg/mL. 1 μl of DMSO was added to “No drug” control wells. The solutions were mixed on a plate shaker for 10 mins and plates incubated at 35° C. for 40 to 48 h (C. albicans, A. fumigatus) and 72 h (C. neoformans). The minimum concentration that led to 50% reduction in fungal growth as compared to the control (with the aid of a reading mirror) was determined as the minimum inhibitory concentration (MIC) for C. albicans and C. neoformans.

The test system of experiment [9] is strains of C. neoformans and C. gattii. Put plainly: Activity vs Cryptococcus, summary over the strains tested. Type of experiment: cell-based, Cryptococcus neoformans and Cryptococcus gattii.
From the text: as §3, §1, §4

For experiment [10], the system named is C. neoformans isolates. As to the kind of experiment: Activity vs susceptible and FLC non-susceptible/resistant strains, broth microdilution. Type of experiment: cell-based, Cryptococcus neoformans.
From the text: as §3, §1, §4

Experiment [11] relates to C. gattii WM276. Put plainly: Antifungal susceptibility testing, CLSI broth microdilution (Example 496/497). Format: cell-based, Cryptococcus gattii. To be noted: 50% reduction in fungal growth.
From the text: as §1, §2

[12] abbreviates: in the presence of ABT, 20 mg/kg Ex. 172 prodrug, 60 mg/kg Ex. 173 prodrug, 80 mg/kg Compound 1.

As to `Nc1ncccc1-c1cc(Cc2ccc(OCc3ccccc3)cc2)no1`, in experiment [1] (Cryptococcus neoformans, H99, 72 h, read-out: MIC C. neoformans H99), the MIC was 0.031 µg/mL (≈ 0.0867 µM). For the same molecule, the “fold improved anti-C. neoformans H99 activity compared to Compound 2” value in experiment [1] (from MIC values) is on record as 8 fold. The “FICI in combination with FLC” value in experiment [2] is listed as 0.37.
In the case of `Nc1c(-c2cc(Cc3ccc(Oc4cccc(F)n4)cc3)no2)ccc[n+]1COP(=O)([O-])O`, in experiment [3], the “reduction of log10 CFU/g brain vs untreated control, delayed treatment” value turned out to be 6.84 log10 CFU/g and the “reduction of log10 CFU/g lung vs untreated control, delayed treatment” value was determined as 4.59 log10 CFU/g. Also, the “reduction in lung burden, without ABT” value in experiment [4] (dose response study, 60 mg/kg/day without ABT, non-significant) turned out to be 0.74 log10 CFU/g. For the same molecule, in experiment [4] (setting [12]), the “log10 CFU/g brain reductions at doses of similar AUC (approximately 80 μg·h/mL)” value was determined as 2.95 log10 CFU/g and the “log10 CFU/g lung reductions at doses of similar AUC (approximately 80 μg·h/mL)” value is given as 3.69 log10 CFU/g. Also, in experiment [4] (34 mg/kg QD IP 7 days), the “reduction of CFU in brain vs untreated control” value is given as 7.05 log10 CFU/g and the “reduction of CFU in lung vs untreated control” value was “approximately 4.67 log10 CFU/g”. In experiment [4] (60 mg/kg QD IP 7 days), the “reduction of CFU in brain vs untreated control” value is 7.13 log10 CFU/g and the “reduction of CFU in lung vs untreated control” value was “approximately 4.67 log10 CFU/g”.
Consider `Nc1nc(=O)[nH]cc1F` [5-flucytosine], for which the “MIC90 versus C. neoformans, US isolates” value in experiment [5] is 8 µg/mL (≈ 62 µM).
Turning to `C[C@@H]1[C@H](O)[C@@H](C)/C=C/C=C/C=C/C=C/C=C/C=C/C=C/[C@H](O[C@@H]2O[C@H](C)[C@@H](O)[C@H](N)[C@@H]2O)C[C@@H]2O[C@](O)(C[C@@H](O)C[C@@H](O)[C@H](O)CC[C@@H](O)C[C@@H](O)CC(=O)O[C@H]1C)C[C@H](O)[C@H]2C(=O)O` [AMB, amphotericin B, reference compound], the “MIC C. neoformans H99” value in [1] (50% reduction in fungal growth, 72 h, 35° C.) amounted to 0.25 µg/mL (≈ 0.271 µM). Besides, the “MIC or MEC A. fumigatus MYA3626” value in experiment [6] (MEC, shortening of hyphae, 40 to 48 h) worked out at 1 µg/mL (≈ 1.08 µM). In addition, in experiment [7] (MIC, 50% reduction in growth, 40 to 48 h), the “MIC or MEC C. albicans 90028” value is 1 µg/mL (≈ 1.08 µM). Also, the “reduction of log10 CFU/g lung vs untreated control, delayed treatment” value in experiment [3] is 4.02 log10 CFU/g. In addition, the MIC in [8] (C. gattii MYA-4093) came out at 0.25 µg/mL (≈ 0.271 µM); in experiment [8] (C. gattii MYA-4094), 0.25 µg/mL (≈ 0.271 µM); in [8] (C. gattii MYA-4560), 0.063 µg/mL (≈ 0.0682 µM); in experiment [8] (C. gattii MYA-4561) it was 0.25 µg/mL (≈ 0.271 µM); in [8] (C. gattii MYA-4562) it was 0.25 µg/mL (≈ 0.271 µM); in experiment [8] (C. gattii MYA-4563), 0.125 µg/mL (≈ 0.135 µM). Also, the minimal inhibitory concentration (MIC) was 0.25 µg/mL (≈ 0.271 µM) in [8] (C. gattii MYA-4877); 0.25 µg/mL (≈ 0.271 µM) in [8] (C. gattii RSA-MW-3615 (FLC-resistant)); 0.25 µg/mL (≈ 0.271 µM) in experiment [10] (C. neoformans 14116); 0.25 µg/mL (≈ 0.271 µM) in experiment [10] (C. neoformans 76484); 0.25 µg/mL (≈ 0.271 µM) in experiment [10] (C. neoformans DUMC 118.00 (FLC-resistant)); 1 µg/mL (≈ 1.08 µM) in [10] (C. neoformans DUMC 158.03 (FLC-resistant)). The MIC in experiment [10] (C. neoformans H99) came to 0.25 µg/mL (≈ 0.271 µM); in experiment [10] (C. neoformans MYA-4564), 0.25 µg/mL (≈ 0.271 µM); in [10] (C. neoformans MYA-4565) it was 0.125 µg/mL (≈ 0.135 µM); in [10] (C. neoformans MYA-4566), 0.25 µg/mL (≈ 0.271 µM); in experiment [10] (C. neoformans MYA-4567), 0.25 µg/mL (≈ 0.271 µM). In [5], the “MIC90 versus C. neoformans, US isolates” value was 2 µg/mL (≈ 2.16 µM). Further, in [9] (geometric mean over the 18 isolates of C. neoformans and C. gattii), the “MIC GEOMEAN” value is 0.215 µg/mL (≈ 0.233 µM). The MIC90 in experiment [9] (panel of 18 isolates of C. neoformans and C. gattii) turned out to be 0.25 µg/mL (≈ 0.271 µM). In [11], the “MIC C. gattii WM276” value was found to be 0.25 µg/mL (≈ 0.271 µM).
Regarding `CC[C@H](C)C[C@H](C)CCCCCCCCC(=O)N[C@H]1C[C@@H](O)[C@@H](NCCN)NC(=O)[C@@H]2[C@@H](O)CCN2C(=O)[C@H]([C@H](O)CCN)NC(=O)[C@H]([C@H](O)[C@@H](O)c2ccc(O)cc2)NC(=O)[C@@H]2C[C@@H](O)CN2C(=O)[C@H]([C@@H](C)O)NC1=O` [CAS, caspofungin, reference compound], the minimal inhibitory concentration (MIC) in experiment [6] (Aspergillus fumigatus, MYA3626, read-out: MIC or MEC A. fumigatus MYA3626) was found to be 0.25 µg/mL (≈ 0.229 µM); in experiment [7] (Candida albicans, 90028, read-out: MIC or MEC C. albicans 90028), 0.5 µg/mL (≈ 0.457 µM).
